The values that follow come from patent US8153599B1, “Compounds with the biological activity of vasoactive intestinal peptide for the treatment of pulmonary and arteriolar hypertension” (Mondobiotech AG, priority 2000, dated 2012).

What is called Kd is the constant that tells how readily two partners part at equilibrium.

Read-outs that look alike come from different tables or passages of the source. No end group written: not given here.

The test system of test [1] is isolated VSMC prepared from pulmonary arteries. Kind of test: Binding of 99 mTc-VIP to isolated VSMC prepared from pulmonary arteries. The conditions noted are these: for Kd: read-out: binding affinity Kd. More on the design: species or system human. The source says:
FIG. 4: Binding of 99 mTc-VIP to isolated VSMC prepared from pulmonary arteries of PPH patients (4b) and control patients (4a).
(§1) While VIP-R mRNA accumulation is easily detectable PPH, only low levels of VIP-R mRNA accumulation can be detected in healthy controls (FIG. 3). Analogously an increased receptor binding activity for VIP is seen in primary cultures of pulmonary artery vascular smooth muscle cells (PaVSMC) prepared from pulmonary resistance vessels of PPH patients compared to healthy subjects (FIGS. 4a and 4b). […] Pharmacologically, nitric oxide induces vasodilatation by lowering the intracellular free calcium concentration of PaVSMC.

The test system of test [2] is VSMC prepared from pulmonary arteries. Nature of the test: Interleukin1-b induced elevation of intracellular free calcium in VSMC from pulmonary arteries, fura-2 method. It counts as cell-based, human. The conditions noted are these: VIP 250 ng/ml and 500 ng/ml (FIG. 9). As for the experimental part:
FIG. 9: The effect of VIP on the interleukin1-b induced elevation of intracellular free calcium concentration in VSMC prepared from pulmonary arteries. Ordinate-Ca2+ (nmol). 1-basal concentration; 2-interleukin1-b; 3-interleukin1-b plus VIP 250 ng/ml and 4-VIP 500 ng/ml intracellular calcium concentration during incubation with VIP; Ca 2+ was determined by fura-2 method.
as §1

In test [3] the test system is Nitric oxide synthetase (ecnos). Kind of test: Nitric oxide synthetase (ecnos) expression in endothelial cells from pulmonary arteries, Western blot. The conditions noted are these: 10^−7 M, normoxic and hypoxic conditions, 96 hours (FIG. 8). It counts as cell-based, human. On the procedure: FIG. 8: Nitric oxide synthetase (ecnos) expression in endothelial cells prepared from pulmonary arteries of control subjects after 96 hours of incubation. Cells were incubated with VIP (10^−7 M) under normoxic (−) and hypoxic (+) conditions for various times. Western blots reveal constitutive expression under normoxic conditions without VIP.
as §1
In general terms: A western blot detects proteins with antibodies after separation by electrophoresis.

The nature of test [4]: Acute testing of inhaled peptide in PPH patient, right heart catheterisation (pulmonary hemodynamics and gas exchange). It counts as in vivo, human. The conditions noted are these: for mean pulmonary artery pressure (mPAP) after inhalation: 100 μg inhaled for 15 minutes, measured 15 minutes after, baseline 63 (VIP) / 65 (PACAP) mmHg; for PVR after inhalation / SvO2 after inhalation / PaO2 after inhalation: 100 μg inhaled; for PVR after inhalation: baseline 12 (VIP) / 13 (PACAP) woods; for SvO2 after inhalation: baseline 61% (VIP) / 59% (PACAP); for PaO2 after inhalation: baseline 91%. As for the experimental part:
A patient with severe PPH was under therapy with diltiazem, furosemid and an anticoagulant. Right heart catheterisation (Swan-Ganz, Baxter, Irvine, Calif., USA) was performed to measure mean pulmonary artery pressure (mpap), cardiac output (CO), mean arterial pressure (MAP), pulmonary capillary wedge pressure (PCWP) mixed venous oxygen saturation (SvO2%) and systemic arterial oxygen pressure (PaO2%). VIP (100 μg in 3 ml NaCl 0.9%) was inhaled for 15 minutes via the MicroDrop Master Jet (MPV, Truma, Germany) using a particle size of 3 μm to provide alveolar deposition of the substance. Alternatively VIP was injected i.v. 20 (ng/kg.b.w./min) via portable pump system (CADD-1, Pharmacia-Upjohn, Vienna, Austria). Pulmonary homodynamic and gas exchange were measured before and 15 minutes after inhalation or i.v. injection of VIP. Right heart catheterisation was performed in the intensive care unit. The patient was monitored on-line electrocardiographically, invasive blood pressure and systemic arterial oxygen saturation (SaO2%) (Hewlett Packard, Böblingen, Germany) were measured. All hemodynamic and oxygen measurements were performed with a cardiac output computer (Explorer, Baxter) and a pressure monitoring kit (Baxter, Irvine, Calif., USA). Calculations were made according to the standard equations in a […] by taking blood from the radial and pulmonary artery (Automatic blood gas system, AVL-995-Hb, Austria). At baseline (before inhalation of VIP), mPAP was 63 mmHg, CI 3.6 l·min^−1, PVR 12 woods, PCWP 9 mmHg, PaO2 91% and SvO2 61%. Addition of 100 μg inhaled VIP improved pulmonary hemodynamic parameters; mPAP decreased to 49 mmHg and PVR to 9 woods. PaO2 to 93% and SvO2 to 63% compared to baseline.
A patient with severe PPH was under therapy with diltiazem, furosemid and an anticoagulant. Right heart catheterisation (Swan-Ganz, Baxter, Irvine, Calif., USA) was performed to measure mean pulmonary artery pressure (mpap), cardiac output (CO), mean arterial pressure (mAP), pulmonary capillary wedge pressure (PCWP) mixed venous oxygen saturation (SvO2%) and systemic arterial oxygen pressure (PaO2%). PACAP (100 μg in 3 ml NaCl 0.9%) was inhaled for 15 minutes via the MicroDrop Master Jet (MPV, Truma, Germany) using a particle size of 3 μm to provide alveolar deposition of the substance. Pulmonary hemodynamics and gas exchange were measured before and 15 minutes after inhalation of PACAP. Right heart catheterisation was performed in the intensive care unit. The patient was monitored on-line electrocardiographically, invasive blood pressure and systemic arterial oxygen saturation (SaO2%) (Hewlett Packard, Böblingen, Germany) were measured. All hemodynamic and oxygen measurements were performed with a cardiac output computer (Explorer, Baxter) and a pressure monitoring kit (Baxter, Irvine, Calif., USA). Calculations were made according to the standard equations in a patient data management system (CareVue 9000, Hewlett Packard, Böblingen, Germany). Blood gas analysis was performed by taking blood from the radial and pulmonary artery (Automatic blood gas system, AVL-995-Hb, Austria). At baseline (before inhalation of PACAP), mPAP was 65 mmHg, CI 3.2 l·min^−1, PVR 13 woods, PCWP 10 mmHg, PaO2 91% and SvO2 59%. Addition of 100 μg inhaled PACAP improved pulmonary hemodynamic parameters; mpap decreased to 45 mmHg and PVR to 8 woods. PaO2 increased to 93% and SvO2 to 62% compared to baseline.

Test [5] in a line: i.v. VIP in patient with severe essential arteriolar hypertension, intraarterial blood pressure monitoring. In kind it is in vivo, human. The conditions noted are these: 20 ng/kg/min i.v. As for the experimental part:
FIG. 7: The effect of VIP on systolic and diastolic blood pressure in a patient with essential hypertension after intravenous injection. The patient received VIP at 20 ng/kg/b.w./min. Blood pressure was measured intraarterially. Y-axis: pressure (mmHg), x-axis: time (min).
A patient with severe essential arteriolar hypertension is under treatment with nifedipine and enalapril. Systolic and diastolic systemic arterial pressure (SAP) were measured by intraarterial monitoring. VIP (20 ng/kg/min) was injected i.v. via a portable pump system (CADD-1, Pharmacia-Upjohn, Vienna, Austria). […] Before injection of VIP, the systolic pressure (SAP) was 165 mmHg and the diastolic (DAP) was 110 mmHg.

Test [6] can be described thus: Inhaled VIP in COPD patient with secondary pulmonary hypertension (SPH). In kind it is in vivo, human. As for the experimental part:
A patient suffering from Chronic Obstructive Pulmonary Disease (COPD) with secondary pulmonary hypertension (SPH) (mPAP 32 mmHg) was tested for their response to inhaled VIP (200 μg in 3 ml NaCl 0.9%) The inhalation of VIP led to a decrease of mPAP from 32 mmHg to 25 mmHg. This effect was paralleled by increase of cardiac output from 4.1 l·min^−1 to 4.8 l·min^−1.

Test [7] has as its system human pulmonary arterial rings. Nature of the test: Vasodilatory effect on human pulmonary arterial rings (vascular tone in vitro). It counts as cell-based. The conditions noted are these: after increase of tone by 80 mmol K+, increasing concentrations (FIG. 6). The source says:
FIG. 6: Vasodilatory effect of VIP on human pulmonary arterial rings. Arteries of patients subjected to thorax surgery were surgically removed and tested in vitro under standardized procedures for their vascular tone.

For test [8], the system named is VSMC from pulmonary arterial vessel. Nature of the test: Proliferation of VSMC from pulmonary arterial vessel. The conditions noted are these: 10^−12 M to 10^−9 M (FIG. 10). In kind it is cell-based, human.
Excerpt: FIG. 10: The effect of VIP on the proliferation of VSMC from pulmonary arterial vessel. Ordinate-proliferation as percent of control. 1-without VIP; 2-10^−12M VIP; 3-10^−11M VIP; 4-10^−10M VIP; 5-10^−9M VIP.
as §1

Test [9] in a line: Acute testing of inhaled peptide in PPH patient, right heart catheterisation (pulmonary hemodynamics and gas exchange). It counts as in vivo, human. The conditions noted are these: for time dependence of mPAP decrease: 100 μg inhaled (FIG. 5b).
The target of test [10] is VIP receptor (VIP-R) on vascular smooth muscle cells prepared from human pulmonary arteries (human). Nature of the test: radioligand binding of 99mTc-VIP to isolated VSMC from pulmonary arteries of control patients (FIG. 4a).
Test [11] has the same target. Nature of the test: radioligand binding of 99mTc-VIP to isolated VSMC from pulmonary arteries of PPH patients (FIG. 4b).
Where [12] appears, read: VSMC of control patients (FIG. 4a).

99 mTc-VIP: radiolabeled VIP: in [1] (VSMC of PPH patients (FIG. 4b)), the “specific binding Bmax” value is listed as 0.9 pm per mg protein and the Kd turned out to be 1.6 pM. Besides, in test [1] (setting [12]), the “specific binding Bmax” value is 0.6 pm per mg protein and the Kd is 42 pM.
“His-Ser-Asp-Ala-Val-Phe-Thr-Asp-Asn-Tyr-Thr-Arg-Leu-Arg-Lys-Gln-Met-Ala-Val-Lys-Lys-Tyr-Leu-Asn-Ser-Ile-Leu-Asn (HSDAVFTDNYTRLRKQMAVKKYLNSILN; listed as Homo sapiens) [VIP, 28 amino acid peptide hormone]”: the “intracellular free calcium concentration” value in test [2] is “decrease of the intracellular free calcium concentration”. In addition, in test [3], the ecnos expression entry is “increased expression of ecnos above constitutional level”. In test [4], the “mean pulmonary artery pressure (mPAP) after inhalation” value was determined as 49 mmHg, the PVR after inhalation came out at 9 woods, the SvO2 after inhalation amounted to 63% and the PaO2 after inhalation stood at 93%. Also, the “diastolic pressure (DAP) after application” value in [5] (before 110 mmHg) came out at 90 mmHg. Further, the “systolic pressure (SAP) after application” value in test [5] (before 165 mmHg) came to 145 mmHg. In addition, the mPAP after inhalation in test [6] (200 μg in 3 ml NaCl 0.9% inhaled, from 32 mmHg) was 25 mmHg. For the same molecule, the “cardiac output after inhalation” value in [6] (200 μg inhaled, from 4.1 l·min^−1) came out at 4.8 L/min. In addition, in test [7], the vessel tone result was “continuous decrease of the vessel tone”. Besides, the “proliferation of PaVSMC” value in test [8] is listed as “inhibits the proliferation”. In addition, in [9] (PPH patient), the “time dependence of mPAP decrease” value is “Time dependant decrease”. The “dose dependence of mPAP decrease” value in test [9] (PPH patient, increased inhaled doses (FIG. 5a)) is recorded as “dose-dependently decrease”. In test [9] (PPH patient, inhaled), this molecule registered a dose of maximum efficacy on mPAP of 100 µg.
In the case of “His-Ser-Asp-Gly-Ile-Phe-Thr-Asp-Ser-Tyr-Ser-Arg-Tyr-Arg-Lys-Gln-Met-Ala-Val-Lys-Lys-Tyr-Leu-Ala-Ala-Val-Leu-Gly-Lys-Arg-Tyr-Lys-Gln-Arg-Val-Lys-Asn-Lys (HSDGIFTDSRYSRYRKQMAVKKYLAAVLGKRYKQRVNK; listed as Homo sapiens) [PACAP, neuropeptide of 38 amino acid residues]”, in test [4], the “mean pulmonary artery pressure (mPAP) after inhalation” value is 45 mmHg, the PVR after inhalation is 8 woods, the SvO2 after inhalation turned out to be 62% and the PaO2 after inhalation was found to be 93%. Further, the “time dependence of mPAP decrease” value in [9] (PPH patient) was “time-dependently decrease”. In addition, the CI in test [9] (Table 1, after, mean, before mean 2.7) is recorded as 3.2. The molecule also registered a PCWP in [9] (Table 1, after, mean, before mean 8.6) of 8.5. The same molecule displayed a mPAP in test [9] (Table 1, after, mean, before mean 57.1) of 44.4. In test [9] (Table 1, after, mean, before mean 60.0), this molecule displayed a SvO2 of 62.5. Besides, in test [9] (Table 1, after, mean, before mean 66.8), the PaO2 was 69.3. This molecule also gave a mAP in test [9] (Table 1, after, mean, before mean 84.5) of 81.0. In test [9] (Table 1, after, mean, before mean 906.4), this molecule gave a PVR of 544.1.

B1: 99mTc-labelled vasoactive intestinal peptide (VIP) (peptide)
peptide: HSDAVFTDNYTRLRKQMAVKKYLNSILN
modifications: ends and bridges not checked; also: 99mTc radiolabel, site and chelator not given here
B1 had a Bmax (pm per mg protein) in [10] of 0.6. In test [11], this molecule displayed a Bmax (pm per mg protein) of 0.9 and a Kd of 1.6 pM.
